Experimental data published in patent US20070105837A1, “Novel derivatives of 4a,5,9,10,11,12-hexahydrobenzofuro[3a,3,2][2]-benzazepine, method for the production thereof and use thereof in the production of medicaments” (priority 2003, published 2007).
pIC50: −log10 of the molar value. Structures can show the parent of a compound that is named as a salt. Where two headings read alike, the source gives them in different places.

Target: butyrylcholinesterase (Homo sapiens, UniProt P06276)
Assay: biochemical
[1] = read-out: Butyrylcholinesterase IC-50

Chain of butyrylcholinesterase (P06276 29-602): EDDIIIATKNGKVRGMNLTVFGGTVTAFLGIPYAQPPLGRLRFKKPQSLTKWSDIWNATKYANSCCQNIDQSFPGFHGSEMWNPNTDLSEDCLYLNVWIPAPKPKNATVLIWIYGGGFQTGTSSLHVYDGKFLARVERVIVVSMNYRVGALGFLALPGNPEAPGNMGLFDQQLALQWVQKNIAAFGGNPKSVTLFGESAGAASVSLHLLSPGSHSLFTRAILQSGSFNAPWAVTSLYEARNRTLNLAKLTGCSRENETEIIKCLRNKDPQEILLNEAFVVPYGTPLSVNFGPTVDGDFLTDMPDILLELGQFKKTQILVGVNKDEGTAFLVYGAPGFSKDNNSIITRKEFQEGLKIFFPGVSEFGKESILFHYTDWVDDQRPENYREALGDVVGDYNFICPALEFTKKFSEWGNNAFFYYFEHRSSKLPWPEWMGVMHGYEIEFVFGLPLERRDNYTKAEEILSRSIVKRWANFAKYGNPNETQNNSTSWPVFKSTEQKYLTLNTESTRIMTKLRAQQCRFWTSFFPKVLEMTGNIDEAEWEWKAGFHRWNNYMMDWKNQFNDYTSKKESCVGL

`COc1cc(Br)c2c3c1O[C@@H]1C[C@H](O)C=C[C@]31CCN(C(=O)CN1CCN(C)CC1)C2` [Example 7, 1-[(4aR,6S,8aR)-1-bromo-6-hydroxy-3-methoxy-5,6,9,10-tetrahydro-4aH-[1]benzofuro[3a,3,2-ef][2]benzazepine-11(12H)-yl]-2-(4-methylpiperazinyl)ethan-1-one] showed a pIC50 [1] of less than 4.00.

`C=CCNC(=S)N1CC[C@@]23C=C[C@@H](O)C[C@@H]2Oc2c(OC)cc(Br)c(c23)C1` [Example 12, (4aS,6R,8aS)-1-bromo-6-hydroxy-3-methoxy-4a,5,9,10-tetrahydro-6H-[1]benzofuro[3a,3,2-ef][2]benzazepine-11(12H)-thiocarbonic acid allylamide] gave a pIC50 [1] of 4.96.

With `COc1ccc2c3c1O[C@H]1C[C@H](O)C=C[C@@]31CCN(CCN1CCOCC1)C2` [Example 15, (4aS,6S,8aS)-4a,5,9,10,11,12-hexahydro-11-(2-(morpholin-4-yl)-ethyl)-3-methoxy-6H-[1]benzofuro[3a,3,2-ef][2]benzazepin-6-ol] the pIC50 [1] was less than 4.00.

With `C=C(C)CN1CC[C@@]23C=C[C@@H](O)C[C@@H]2Oc2c(OC)ccc(c23)C1` [Example 17, (4aS,6S,SaS)-4a,5,9,10,11,12-hexahydro-3-methoxy-11-(2-methyl-prop-2-enyl)-6H-[1]benzofuro[3a,3,2-ef][2]benzazepin-6-ol] the pIC50 was less than 4.00.

`COc1ccc2c3c1O[C@H]1C[C@H](O)C=C[C@@]31CCN(C(=O)c1ccccc1)C2` [Example 19, (4aS,6S,8aS)-4a,5,9,10,11,12-hexahydro-3-methoxy-11-benzoyl-6H-[1]benzafuro[3a,3,2-ef][2]benzazepin-6-ol] gave a pIC50 [1] of less than 4.00.

With `COc1ccc2c3c1O[C@H]1C[C@H](O)C=C[C@@]31CCN(CC=C(C)C)C2` [Example 22, (4aS,6S,8aS)-4a,5,9,10,11,12-hexahydro-3-methoxy-11-(3-Methylbut-2-en-1-yl)-6H-[1]benzofuro[3a,3,2-ef][2]benzazepin-6-ol] the pIC50 [1] was 4.70.

For `COc1ccc2c3c1O[C@H]1C[C@@H](O)C=C[C@@]31CCN(CC(C)c1cccc(Oc3ccccc3)c1)C2` (stereo partly drawn) [Example 32, 2-((4aS,6R,8aS)-6-hydroxy-3-methoxy-5,6,9,10-tetrahydro-4aH-[1]benzofuro[3a,3,2-ef][2]benzazepine-11(12H)-yl)-1-methyl-1-(3-phenoxyphenyl)ethane hydrochloride], the pIC50 was 6.44.

In the case of `COc1ccc2c3c1O[C@H]1C[C@@H](O)C=C[C@@]31CCN(C(=O)c1ccccc1)C2` [Example 33, (4aS,6R,8aS)-4a,5,9,10,11,12-hexahydro-3-methoxy-11-benzoyl-6H-[1]benzofuro[3a,3,2-ef][2]benzazepin-6-ol], the pIC50 [1] was less than 4.00.

Molecule `COc1ccc2c3c1O[C@H]1C[C@@H](O)C=C[C@@]31CCN(CC(C)C(=O)c1ccc(C)cc1)C2` (stereo partly drawn) [Example 35, 3-[(4aS,6R,8aS)-6-hydroxy-3-methoxy-5,6,9,10-tetrahydro-4aH-[1]benzofuro[3a,3,2-ef][2]benzazepine-11(12H)-yl]-2-methyl-1(- 4-methylphenyl)propan-1-one, hydrochloride] has a pIC50 [1] of 6.40.

For `COc1ccc2c3c1O[C@H]1C[C@@H](O)C=C[C@@]31CCN(C(=O)CN1CCCCC1)C2` [Example 36, 1-[(4aS,6R,8aS)-6-hydroxy-3-methoxy-5,6,9,10-tetrahydro-4aH-[1]benzofuro[3a,3,2-ef][2]benzazepine-11(12H)-yl]-2-(1-piperidyl)ethan-1-one], the pIC50 [1] was less than 4.00.

`COc1ccc2c3c1O[C@H]1C[C@@H](O)C=C[C@@]31CCN(C(=O)CCN1CCCC1)C2` [Example 38, 1-[(4aS,6R,8aS)-6-hydroxy-3-methoxy-5,6,9,10-tetrahydro-4aH-[1]benzofuro[3a,3,2-ef][2]benzazepine-11(12H)-yl]-3-(1-pyrrolidyl) propan-1-one] gave a pIC50 [1] of 5.62.
